This passage reports IC50 and CC50 results from patent US20230286927A1, “2-PHENYLBENZOTRIAZOL-5-AMINE DERIVATIVES FOR THE TREATMENT AND PROPHYLAXIS OF HEPATITIS B VIRUS (HBV) INFECTION” (priority 2020, published 2023).

What is called IC50 is the midpoint of a concentration-inhibition curve. Broadly, the CC50 is the concentration giving 50% cytotoxicity. Lower therefore signals greater toxicity to the cells.

One data set concerns HBeAg. The experiment in a line: PHH natural infection assay, HBeAg (alphalisa). Type of data set: cell-based, HBV. The note with it: Hepatitis B virus, Hepatocyte, 72 h, read-out: HBeAg IC50. As to the method: (§1) Detailed procedures regarding primary human hepatocyte (PHH) HBV natural infection assay are described as below. One tube of frozen PHH (10 million cells) is thawed in 37° C. water bath and then transferred to 20 mL of PHH thawing medium (Sigma, InVitroGRO HT Medium, Cat. S03319) with gently mixing. The cells were then centrifuged at […] for 5 min, the supernatant was discarded and the tube was refilled with 25 mL of PHH plating medium (Sigma, InVitroGRO CP Medium, Cat. S03317). The tube was shaken very gently to re-suspend all cells, and then 50 μl of cells were transferred to each well 384-well collagen I coated plate with appropriate liquid handling equipment, e.g. Integra VIAFLO384 or Agilent Bravo. The cells were then cultured for 24 hours in a cell incubator. For HBV infection, after PHH attachment on the culture plate, the plating medium was removed and replenished with PHH culture medium containing HBV virus. The PHH culture medium was prepared with Dulbecco's Modified Eagle Medium (DMEM)/F12 (1:1 in volume ratio) containing 10% fetal bovine serum (Gibco, Cat. 10099141), 5 ng/mL human epidermal growth factor (Gibco, Cat.PHG031IL), 20 ng/mL dexamethasone (Sigma, Cat.D4902-100 mg), 250 ng/mL human recombinant insulin (Gibco, Cat.41400045) and 100 U/mL penicillin. HBV virus at 200 genome equivalent (GE) per cell with 4% PEG8000 (Sigma, Cat.P1458) containing culture medium were added to the PHH culture medium for infection. The cells were then cultured for 24 hours in cell incubator. Then the cell culture supernatant was removed. The HBV-infected PHH were cultured with sandwich culture method with PHH culture medium containing 1% DMSO and 0.25 mg/mL matrix gel for 72 hours. The supernatant was then refreshed with PHH culture medium containing different concentrations of testing compounds for two times with 72-hour interval. At the end of treatment, the supernatant was collected for viral markers measurements, including HBsAg, HBeAg, HBV DNA and cytotoxicity. HBsAg and HBeAg were detected using alphalisa method using their specific antibodies. For HBV DNA detection, HBV DNA Quantitative Fluorescence Diagnostic Kit (Sansure Biotech Inc.) was used following the manufacture's protocol. Cytotoxicity was determined using Cell Counting Kit-8 (CCK8, Dojindo Molecular Technologies, Inc.).
(§2) The compounds of the present invention were tested for their capacity to inhibit HBsAg and HBeAg as described herein.

In the next data set the test system is HBsAg. The experiment in a line: PHH natural infection assay, HBsAg (alphalisa). Type of data set: cell-based, HBV. The note with it: Hepatitis B virus, Hepatocyte, 72 h, read-out: HBsAg IC50. As for the experimental part: as §1, §2
For orientation: In Alpha technology, singlet oxygen from a donor bead excites a nearby acceptor bead.

A short description of data set [1]: Cytotoxicity in PHH natural infection assay (Cell Counting Kit-8). It counts as cell-based. The note with it: HBV-infected primary human hepatocytes, CCK8. As to the method:
as §1
In general terms: Tetrazolium assays rely on reduction of a dye to a coloured formazan, in cell work by metabolically active cells.

With `O=C(Nc1ccc2nn(-c3ccc(F)cc3)nc2c1)C1CCCC1` [Example 43, N-[2-(4-fluorophenyl)benzotriazol-5-yl]cyclopentanecarboxamide], the IC50 in the data set on HBeAg was 12.8 µM; in the data set with HBsAg, 8.2 µM. In data set [1], this compound returned a half-maximal cytotoxic concentration (CC50) at 144 h of more than 100 µM.

In the case of `Nc1ccc2nn(-c3ccc(F)cc3)nc2c1` [Example 4, 2-(4-Fluorophenyl)benzotriazol-5-amine], the half-inhibitory concentration (IC50) came out at 5.29 µM with HBeAg and 5.04 µM with HBsAg. For the same compound, in data set [1], the half-maximal cytotoxic concentration (CC50) at 144 h was more than 100 µM.

For the compound `CC(C)Nc1ccc2nn(-c3ccc(Cl)cc3)nc2c1` [Example 30, 2-(4-Chlorophenyl)-N-isopropyl-benzotriazol-5-amine], the half-maximal inhibitory concentration (IC50) in the data set on HBeAg stood at 6.61 µM; in the data set with HBsAg it was 3.75 µM. In data set [1], this compound showed a CC50 at 144 h of more than 100 µM.

On to `Clc1ccc(-n2nc3ccc(NCC4CCCO4)cc3n2)cc1` (stereo not drawn) [Example 27, 2-(4-Chlorophenyl)-N-(tetrahydrofuran-2-ylmethyl)benzotriazol-5-amine], for which the IC50 in the data set on HBeAg came out at 11.7 µM; in the data set with HBsAg it was 6.07 µM. In data set [1], the CC50 at 144 h is more than 100 µM.

Turning to `O=C(Nc1ccc2nn(-c3ccc(Cl)cc3)nc2c1)C1CCOC1` (stereo not drawn) [Example 48, N-[2-(4-chlorophenyl)benzotriazol-5-yl]tetrahydrofuran-3-carboxamide], the IC50 in the data set with HBeAg was found to be 3.12 µM; in the data set with HBsAg it was 4.81 µM. This compound also yielded a CC50 at 144 h in data set [1] of more than 100 µM.

For `c1ccc(-n2nc3ccc(NC4CCCC4)cc3n2)cc1` [Example 16, N-cyclopentyl-2-phenyl-benzotriazol-5-amine], the concentration for half-maximal inhibition (IC50) in the data set on HBeAg stood at 15.8 µM; in the data set on HBsAg, 9.25 µM. For the same compound, the 50% cytotoxic concentration (CC50) at 144 h in data set [1] is more than 100 µM.

As to `CCN(C)c1ccc2nn(-c3ccc(Cl)cc3)nc2c1` [Example 36, 2-(4-Chlorophenyl)-N-ethyl-N-methyl-benzotriazol-5-amine], the IC50 amounted to 4.45 µM with HBeAg and 4.03 µM with HBsAg. The compound also had a cytotoxic concentration (CC50) at 144 h in data set [1] of more than 100 µM.

Take `CNC(=O)CCNc1ccc2nn(-c3ccc(Cl)cc3)nc2c1` [Example 37, 3-[[2-(4-Chlorophenyl)benzotriazol-5-yl]amino]-N-methyl-propanamide]: the IC50 in the data set on HBeAg worked out at 8.68 µM; with HBsAg, 4.64 µM. In data set [1], this compound gave a half-maximal cytotoxic concentration (CC50) at 144 h of more than 100 µM.

Regarding `COCCN(C)c1ccc2nn(-c3ccc(Cl)cc3)nc2c1` [Example 35, 2-(4-Chlorophenyl)-N-(2-methoxyethyl)-N-methyl-benzotriazol-5-amine], the IC50 in the data set with HBeAg is 3.5 µM; in the data set on HBsAg, 2 µM. The same compound returned a CC50 at 144 h in data set [1] of more than 100 µM.

For `O=C(Nc1ccc2nn(-c3ccc(Cl)cc3)nc2c1)C1CCCCC1` [Example 39, N-[2-(4-chlorophenyl)benzotriazol-5-yl]cyclohexanecarboxamide], the IC50 was found to be 2.89 µM with HBeAg and 3.91 µM in the data set with HBsAg. For the same compound, the CC50 at 144 h in data set [1] was more than 100 µM.
